From article PMC9088703 (RSC Advances, 2018)
Like-named read-outs stand apart in the source and are kept apart here.

Key:
BSA [1] = molecular target: T1, BSA (Bos taurus, UniProt P02769); type: in vitro ADME, bovine; settings: for Effect on the plasma protein binding of metoprolol: BSA, metoprolol 0.5, 1 and 2 μg mL^−1, statistical results (p > 0.05); for fraction unbound at 60 min, 0.5 μg mL^−1 / fraction unbound at 60 min, 1 μg mL^−1 / fraction unbound at 60 min, 2 μg mL^−1: bovine, BSA solution
plasma protein = settings: in humans; cited from earlier work
Nonspecific binding = type: in vitro ADME; settings: concentration recovered after ultrafiltration
BSA [2] = molecular target: T1, BSA; assay: Plasma protein binding of metoprolol in BSA by ultrafiltration and UPLC; type: in vitro ADME, bovine; settings: for C f: total free concentration in filtrate

T1 sequence (P02769 25-607): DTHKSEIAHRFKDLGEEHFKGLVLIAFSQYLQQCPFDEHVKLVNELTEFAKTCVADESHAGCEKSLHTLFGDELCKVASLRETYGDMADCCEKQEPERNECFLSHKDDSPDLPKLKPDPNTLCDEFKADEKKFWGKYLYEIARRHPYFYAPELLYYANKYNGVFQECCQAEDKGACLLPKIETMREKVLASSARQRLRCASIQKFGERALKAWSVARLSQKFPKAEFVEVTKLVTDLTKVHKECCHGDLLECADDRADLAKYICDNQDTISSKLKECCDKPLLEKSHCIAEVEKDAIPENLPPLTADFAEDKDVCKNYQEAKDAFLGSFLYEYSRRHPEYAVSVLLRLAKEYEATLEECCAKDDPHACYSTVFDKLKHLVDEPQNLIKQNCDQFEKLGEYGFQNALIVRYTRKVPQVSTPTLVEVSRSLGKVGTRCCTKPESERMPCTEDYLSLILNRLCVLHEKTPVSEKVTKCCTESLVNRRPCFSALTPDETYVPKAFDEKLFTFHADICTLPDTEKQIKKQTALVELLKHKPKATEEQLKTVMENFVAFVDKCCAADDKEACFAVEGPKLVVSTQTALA

CC1(C)[C@@H](O[C@H]2O[C@H](C(=O)O)[C@@H](O)[C@H](O)[C@H]2O[C@@H]2O[C@H](C(=O)O)[C@@H](O)[C@H](O)[C@H]2O)CC[C@]2(C)[C@H]3C(=O)C=C4[C@@H]5C[C@@](C)(C(=O)O)CC[C@]5(C)CC[C@@]4(C)[C@]3(C)CC[C@@H]12 [Glycyrrhizic acid, glycyrrhizic acid]
Effect on the plasma protein binding of metoprolol (BSA [1]): unlikely to affect

C=C1CCC[C@]2(C)C[C@]3(O)OC(=O)C(C)=C3C[C@@H]12 [Atractylenolide III, atractylenolide III]
Effect on the plasma protein binding of metoprolol (BSA [1]): unlikely to affect

COCCc1ccc(OCC(O)CNC(C)C)cc1 (centres unmarked) [Metoprolol]
fraction unbound at 60 min, 0.5 μg mL^−1 (BSA [1]; Plasma protein binding (with cinnamic acid), metoprolol 0.5 μg mL^−1 plus cinnamic acid 1 μg mL^−1, BSA): 0.741 | fraction unbound at 60 min, 1 μg mL^−1 (BSA [1]; Plasma protein binding (with cinnamic acid), metoprolol 1 μg mL^−1 plus cinnamic acid 1 μg mL^−1, BSA): 0.693 | fraction unbound at 60 min, 2 μg mL^−1 (BSA [1]; Plasma protein binding (with cinnamic acid), metoprolol 2 μg mL^−1 plus cinnamic acid 1 μg mL^−1, BSA): 0.716 | fraction unbound at 60 min, 0.5 μg mL^−1 (BSA [1]; Plasma protein binding (with glycyrrhizic acid), metoprolol 0.5 μg mL^−1 plus glycyrrhizic acid 2 μg mL^−1, BSA): 0.721 | fraction unbound at 60 min, 1 μg mL^−1 (BSA [1]; Plasma protein binding (with glycyrrhizic acid), metoprolol 1 μg mL^−1 plus glycyrrhizic acid 2 μg mL^−1, BSA): 0.717 | fraction unbound at 60 min, 2 μg mL^−1 (BSA [1]; Plasma protein binding (with glycyrrhizic acid), metoprolol 2 μg mL^−1 plus glycyrrhizic acid 2 μg mL^−1, BSA): 0.704 | fraction unbound at 60 min, 0.5 μg mL^−1 (BSA [1]; Plasma protein binding (with liquiritin), metoprolol 0.5 μg mL^−1 plus liquiritin 2 μg mL^−1, BSA): 0.74 | fraction unbound at 60 min, 1 μg mL^−1 (BSA [1]; Plasma protein binding (with liquiritin), metoprolol 1 μg mL^−1 plus liquiritin 2 μg mL^−1, BSA): 0.708 | fraction unbound at 60 min, 2 μg mL^−1 (BSA [1]; Plasma protein binding (with liquiritin), metoprolol 2 μg mL^−1 plus liquiritin 2 μg mL^−1, BSA): 0.701 | C free (BSA [1]; metoprolol 0.5 μg mL^−1 plus atractylenolide III (0.1 μg mL^−1)): 0.37 ± 0.02 µg/mL | C f (BSA [1]; metoprolol 0.5 μg mL^−1 plus cinnamic acid 1 μg mL^−1): 0.37 ± 0.01 µg/mL | C free (BSA [1]; metoprolol 0.5 μg mL^−1 plus glycyrrhizic acid 2 μg mL^−1): 0.35 ± 0.02 µg/mL | C free (BSA [1]; metoprolol 0.5 μg mL^−1 plus liquiritin 2 μg mL^−1): 0.37 ± 0.01 µg/mL | C free (BSA [1]; metoprolol 1 μg mL^−1 plus atractylenolide III (0.1 μg mL^−1)): 0.70 ± 0.02 µg/mL | C f (BSA [1]; metoprolol 1 μg mL^−1 plus cinnamic acid 1 μg mL^−1): 0.69 ± 0.02 µg/mL | C free (BSA [1]; metoprolol 1 μg mL^−1 plus glycyrrhizic acid 2 μg mL^−1): 0.72 ± 0.02 µg/mL | C free (BSA [1]; metoprolol 1 μg mL^−1 plus liquiritin 2 μg mL^−1): 0.71 ± 0.03 µg/mL | C free (BSA [1]; metoprolol 2 μg mL^−1 plus atractylenolide III (0.1 μg mL^−1)): 1.40 ± 0.08 µg/mL | C f (BSA [1]; metoprolol 2 μg mL^−1 plus cinnamic acid 1 μg mL^−1): 1.44 ± 0.03 µg/mL | C free (BSA [1]; metoprolol 2 μg mL^−1 plus glycyrrhizic acid 2 μg mL^−1): 1.40 ± 0.03 µg/mL | C free (BSA [1]; metoprolol 2 μg mL^−1 plus liquiritin 2 μg mL^−1): 1.39 ± 0.03 µg/mL | mean plasma protein binding (PPB) (plasma protein): 30.70 ± 2.76% | C post (Nonspecific binding; added 0.5 μg mL^−1): 0.40 ± 0.02 µg/mL | C post (Nonspecific binding; added 1.0 μg mL^−1): 0.78 ± 0.03 µg/mL | C post (Nonspecific binding; added 2.0 μg mL^−1): 1.55 ± 0.05 µg/mL | fraction unbound at 60 min, 0.5 μg mL^−1 (BSA [2]; bovine, BSA solution): 0.718 | fraction unbound at 60 min, 1 μg mL^−1 (BSA [2]; bovine, BSA solution): 0.703 | fraction unbound at 60 min, 2 μg mL^−1 (BSA [2]; bovine, BSA solution): 0.716 | C f (BSA [2]; metoprolol 0.5 μg mL^−1 alone): 0.36 ± 0.01 µg/mL | C f (BSA [2]; metoprolol 1 μg mL^−1 alone): 0.70 ± 0.02 µg/mL | C f (BSA [2]; metoprolol 2 μg mL^−1 alone): 1.45 ± 0.03 µg/mL

O=C(O)/C=C/c1ccccc1 [Cinnamic acid, cinnamic acid]
Effect on the plasma protein binding of metoprolol (BSA [1]): unlikely to affect

O=C1C[C@@H](c2ccc(O[C@@H]3O[C@H](CO)[C@@H](O)[C@H](O)[C@H]3O)cc2)Oc2cc(O)ccc21 [Liquiritin, liquiritin]
Effect on the plasma protein binding of metoprolol (BSA [1]): unlikely to affect
